Laboratory results reported in PubChem BioAssay AID224 (DTP/NCI, 2004).
Several values for one entry are separate records, joined by “and”; a condition that tells them apart may be missing. Equal entries are not always repeated. Inconclusive results and toxic doses are left out.

Tested on: P335 leukemia ip, BDF1 mice, survival T/C %
Test: NCI In Vivo Anticancer Drug Screen. Data for tumor model P335 Leukemia (intraperitoneal) in B6D2F1 (BDF1) mice
Settings: endpoint: mean survival time, higher = longer survival
Experimental: The antitumor activity of compounds was measured in mice bearing transplantable tumors. Survival or tumor size were measured and the results are expressed as the measurement made in the treated group (T) divided by the measurement made in the vehicle treated control group (C). The tumor model used in this assay is P335 Leukemia (intraperitoneal) in B6D2F1 (BDF1) mice

[1] = dose: 1.6 mg/kg/injection, schedule: Q01DX Z (ip), vehicle: carboxymethylcellulose (CMC)
[2] = dose: 3.1 mg/kg/injection, schedule: Q01DX Z (ip), vehicle: carboxymethylcellulose (CMC)
[3] = dose: 6.2 mg/kg/injection, schedule: Q01DX Z (ip), vehicle: carboxymethylcellulose (CMC)
[4] = dose: 12.5 mg/kg/injection, schedule: Q01DX Z (ip), vehicle: carboxymethylcellulose (CMC)
[5] = dose: 62.5 mg/kg/injection, schedule: Q01DX Z (ip), vehicle: carboxymethylcellulose (CMC)
[6] = dose: 125.0 mg/kg/injection, schedule: Q01DX Z (ip), vehicle: carboxymethylcellulose (CMC)

C[n+]1c2ccccc2nc2c(N)cc(N)cc21
T/C [1]: 94 % of control
T/C [2]: 86 % of control
T/C [3]: 97 % of control
T/C (dose: 6.25 mg/kg/injection, schedule: Q01DX Z (ip), vehicle: carboxymethylcellulose (CMC)): 124 % of control
T/C [4]: 100 % of control and 114 % of control
T/C (dose: 25.0 mg/kg/injection, schedule: Q01DX Z (ip), vehicle: carboxymethylcellulose (CMC)): 120 % of control

CS(=O)(=O)OCCCCOS(C)(=O)=O
T/C (dose: 0.2 mg/kg/injection, schedule: Q01DX Z (ip), vehicle: methylcellulose (MC)): 87 % of control
T/C (dose: 0.4 mg/kg/injection, schedule: Q01DX Z (ip), vehicle: methylcellulose (MC)): 100 % of control
T/C (dose: 0.8 mg/kg/injection, schedule: Q01DX Z (ip), vehicle: methylcellulose (MC)): 98 % of control
T/C (dose: 1.6 mg/kg/injection, schedule: Q01DX Z (ip), vehicle: methylcellulose (MC)): 89 % of control and 104 % of control
T/C (dose: 6.4 mg/kg/injection, schedule: Q01DX Z (ip), vehicle: methylcellulose (MC)): 94 % of control
T/C (dose: 12.8 mg/kg/injection, schedule: Q01DX Z (ip), vehicle: methylcellulose (MC)): 94 % of control
T/C (dose: 25.6 mg/kg/injection, schedule: Q01DX Z (ip), vehicle: methylcellulose (MC)): 87 % of control

N#Cc1cn(C2OC(CO)C(O)C2O)c2ncnc(N)c12 (stereo unspecified)
T/C (dose: 0.25 mg/kg/injection, schedule: Q01DX Z (ip), vehicle: carboxymethylcellulose (CMC)): 106 % of control
T/C (dose: 0.5 mg/kg/injection, schedule: Q01DX Z (ip), vehicle: carboxymethylcellulose (CMC)): 98 % of control

Nc1nc(N)c2nc(CNc3ccc(C(=O)NC(CCC(=O)O)C(=O)O)cc3)cnc2n1 (stereo unspecified)
T/C (dose: 16.0 micrograms/kg/injection, schedule: Q01DX Z (ip), vehicle: alkali diluted with saline): 96 % of control
T/C (dose: 31.0 micrograms/kg/injection, schedule: Q01DX Z (ip), vehicle: alkali diluted with saline): 121 % of control
T/C (dose: 62.0 micrograms/kg/injection, schedule: Q01DX Z (ip), vehicle: alkali diluted with saline): 169 % of control
T/C (dose: 63.0 micrograms/kg/injection, schedule: Q01DX Z (ip), vehicle: alkali diluted with saline): 96 % of control
T/C (dose: 250.0 micrograms/kg/injection, schedule: Q01DX Z (ip), vehicle: alkali diluted with saline): 98 % of control

C[C@]12C=CC(=O)C=C1CC[C@@H]1[C@@H]2C(=O)C[C@@]2(C)[C@H]1CC[C@]2(O)C(=O)CO
T/C (dose: 12.5 mg/kg/injection, schedule: Q01DX Z (sc), vehicle: steriod suspending solution): 101 % of control
T/C (dose: 25.0 mg/kg/injection, schedule: Q01DX Z (sc), vehicle: steriod suspending solution): 108 % of control
T/C (dose: 50.0 mg/kg/injection, schedule: Q01DX Z (sc), vehicle: steriod suspending solution): 104 % of control
T/C (dose: 100.0 mg/kg/injection, schedule: Q01DX Z (sc), vehicle: steriod suspending solution): 108 % of control

O=C(Nc1ccc(C2=NCCN2)cc1)c1ccc(C(=O)Nc2ccc(C3=NCCN3)cc2)c(Cl)c1
T/C (dose: 3.75 mg/kg/injection, schedule: Q01DX Z (ip), vehicle: water): 92 % of control
T/C (dose: 7.5 mg/kg/injection, schedule: Q01DX Z (ip), vehicle: water): 120 % of control
T/C (dose: 15.0 mg/kg/injection, schedule: Q01DX Z (ip), vehicle: water): 157 % of control
T/C (dose: 30.0 mg/kg/injection, schedule: Q01DX Z (ip), vehicle: water): 156 % of control and 206 % of control
T/C (dose: 60.0 mg/kg/injection, schedule: Q01DX Z (ip), vehicle: water): 86 % of control

S=c1nc[nH]c2nc[nH]c12
T/C (dose: 37.5 mg/kg/injection, schedule: Q01DX Z (ip), vehicle: other): 116 % of control
T/C (dose: 75.0 mg/kg/injection, schedule: Q01DX Z (ip), vehicle: other): 114 % of control
T/C (dose: 300.0 mg/kg/injection, schedule: Q01DX Z (ip), vehicle: other): 122 % of control

C[C@H]1C(=O)O[C@@H]2CCN3CC=C(COC(=O)[C@](C)(O)[C@@]1(C)O)[C@H]23
T/C (dose: 3.75 mg/kg/injection, schedule: Q01DX Z (ip), vehicle: carboxymethylcellulose (CMC)): 87 % of control
T/C (dose: 7.5 mg/kg/injection, schedule: Q01DX Z (ip), vehicle: carboxymethylcellulose (CMC)): 94 % of control
T/C (dose: 15.0 mg/kg/injection, schedule: Q01DX Z (ip), vehicle: carboxymethylcellulose (CMC)): 91 % of control and 93 % of control
T/C (dose: 30.0 mg/kg/injection, schedule: Q01DX Z (ip), vehicle: carboxymethylcellulose (CMC)): 96 % of control

CCC(=O)O[C@H]1CC[C@H]2[C@@H]3CCC4=CC(=O)CC[C@]4(C)[C@H]3CC[C@]12C
T/C (dose: 23.43 mg/kg/injection, schedule: Q01DX Z (sc), vehicle: steriod suspending solution): 114 % of control
T/C (dose: 60.0 mg/kg/injection, schedule: Q01DX Z (sc), vehicle: steriod suspending solution): 106 % of control
T/C (dose: 93.75 mg/kg/injection, schedule: Q01DX Z (sc), vehicle: steriod suspending solution): 114 % of control
T/C (dose: 300.0 mg/kg/injection, schedule: Q01DX Z (sc), vehicle: steriod suspending solution): 122 % of control
T/C (dose: 375.0 mg/kg/injection, schedule: Q01DX Z (sc), vehicle: steriod suspending solution): 107 % of control
T/C (dose: 1500.0 mg/kg/injection, schedule: Q01DX Z (sc), vehicle: steriod suspending solution): 98 % of control and 113 % of control

OCC1OC(n2cnc3c(=S)nc[nH]c32)C(O)C1O (stereo unspecified)
T/C (dose: 16.0 mg/kg/injection, schedule: Q01DX Z (ip), vehicle: carboxymethylcellulose (CMC)): 87 % of control and 90 % of control
T/C (dose: 31.0 mg/kg/injection, schedule: Q01DX Z (ip), vehicle: carboxymethylcellulose (CMC)): 109 % of control and 110 % of control
T/C [5]: 98 % of control
T/C [6]: 93 % of control

OCC1OC(n2cnc3c(Cl)ncnc32)C(O)C1O (stereo unspecified)
T/C (dose: 7.8 mg/kg/injection, schedule: Q01DX Z (ip), vehicle: carboxymethylcellulose (CMC)): 101 % of control
T/C (dose: 15.6 mg/kg/injection, schedule: Q01DX Z (ip), vehicle: carboxymethylcellulose (CMC)): 105 % of control

COc1ccc(/C=N/NC(N)=S)cc1
T/C (dose: 18.75 mg/kg/injection, schedule: Q01DX Z (ip), vehicle: carboxymethylcellulose (CMC)): 115 % of control
T/C (dose: 37.5 mg/kg/injection, schedule: Q01DX Z (ip), vehicle: carboxymethylcellulose (CMC)): 108 % of control
T/C (dose: 75.0 mg/kg/injection, schedule: Q01DX Z (ip), vehicle: carboxymethylcellulose (CMC)): 106 % of control
T/C (dose: 150.0 mg/kg/injection, schedule: Q01DX Z (ip), vehicle: carboxymethylcellulose (CMC)): 96 % of control
T/C (dose: 300.0 mg/kg/injection, schedule: Q01DX Z (ip), vehicle: carboxymethylcellulose (CMC)): 115 % of control
T/C (dose: 300.0 mg/kg/injection, schedule: Q01DX Z (ip), vehicle: saline): 94 % of control
T/C (dose: 600.0 mg/kg/injection, schedule: Q01DX Z (ip), vehicle: saline): 96 % of control

Oc1cc(CN(CCCl)CCCl)c(O)cc1CN(CCCl)CCCl
T/C (dose: 0.24 mg/kg/injection, schedule: Q01DX Z (sc), vehicle: steriod suspending solution): 95 % of control
T/C (dose: 0.47 mg/kg/injection, schedule: Q01DX Z (sc), vehicle: steriod suspending solution): 109 % of control
T/C (dose: 0.94 mg/kg/injection, schedule: Q01DX Z (sc), vehicle: steriod suspending solution): 103 % of control
T/C (dose: 1.87 mg/kg/injection, schedule: Q01DX Z (sc), vehicle: steriod suspending solution): 104 % of control
T/C (dose: 7.5 mg/kg/injection, schedule: Q01DX Z (sc), vehicle: steriod suspending solution): 87 % of control

Nc1ncnc2c1ccn2C1OC(CO)C(O)C1O (stereo unspecified)
T/C (dose: 0.08 mg/kg/injection, schedule: Q01DX Z (ip), vehicle: carboxymethylcellulose (CMC)): 110 % of control
T/C (dose: 0.16 mg/kg/injection, schedule: Q01DX Z (ip), vehicle: carboxymethylcellulose (CMC)): 97 % of control
T/C (dose: 0.31 mg/kg/injection, schedule: Q01DX Z (ip), vehicle: carboxymethylcellulose (CMC)): 95 % of control
T/C (dose: 0.32 mg/kg/injection, schedule: Q01DX Z (ip), vehicle: carboxymethylcellulose (CMC)): 121 % of control
T/C (dose: 1.25 mg/kg/injection, schedule: Q01DX Z (ip), vehicle: carboxymethylcellulose (CMC)): 93 % of control

CN(C)c1nc(N(C)C)nc(N(C)C)n1
T/C (dose: 31.25 mg/kg/injection, schedule: Q01DX Z (ip), vehicle: carboxymethylcellulose (CMC)): 113 % of control
T/C [5]: 111 % of control
T/C [6]: 113 % of control
T/C (dose: 500.0 mg/kg/injection, schedule: Q01DX Z (ip), vehicle: carboxymethylcellulose (CMC)): 111 % of control
T/C (dose: 1000.0 mg/kg/injection, schedule: Q01DX Z (ip), vehicle: carboxymethylcellulose (CMC)): 93 % of control

CS(=O)(=O)OCCCl
T/C (dose: 0.8 mg/kg/injection, schedule: Q01DX Z (ip), vehicle: carboxymethylcellulose (CMC)): 98 % of control
T/C [1]: 93 % of control
T/C [2]: 102 % of control
T/C [3]: 86 % of control

Cn1c(N)nc2nc[nH]c2c1=S
T/C [1]: 94 % of control
T/C [2]: 94 % of control
T/C (dose: 6.3 mg/kg/injection, schedule: Q01DX Z (ip), vehicle: carboxymethylcellulose (CMC)): 92 % of control

CN(C)c1ccc(Nc2c3ccccc3nc3ccccc23)cc1
T/C [1]: 112 % of control
T/C [2]: 93 % of control
T/C [3]: 96 % of control
T/C [4]: 117 % of control
